From ChEMBL document CHEMBL1151896, “3D QSAR of novel estrogen-RGD peptide conjugates: getting insight into structural dependence of anti-osteoporosis activity and side effect of estrogen in ERT” (Bioorg Med Chem, 2009)
Numbered stars: 1 amine (or outer) side, 2 acyl side, 3 side chain; on linkers, the order of the positions; unused ones are H or OH. Bridge positions count the residues as written; N and C are the ends. Peptide text beside a SMILES is read from it. I, II: the chains in the order shown. * marks the point of attachment. Estradiol(3-OCH2CO,17-OSuc) = C[C@]12CC[C@@H]3c4ccc(OCC(=O)[*:1])cc4CC[C@H]3[C@@H]1CC[C@@H]2OC(=O)CCC(=O)[*:2]; Succinyl(O17-estradiol) = C[C@]12CC[C@@H]3c4ccc(O)cc4CC[C@H]3[C@@H]1CC[C@@H]2OC(=O)CCC(=O)*; Acetyl(estradiol-3-yloxy) = C[C@]12CC[C@@H]3c4ccc(OCC(=O)*)cc4CC[C@H]3[C@@H]1CC[C@@H]2O; X1 = C[C@]12CC[C@@H]3c4ccc(OCC(=O)*)cc4CC[C@H]3[C@@H]1CCC2=O

Assays:
Mus musculus [1] = assay: Toxicity in ovariectomized ICR mouse assessed as tail bleeding time at 110.3 nmol/kg, po for 30 mins; type: organism-based; details: in vivo, 0.5 h
Mus musculus [2] = assay: Antiosteoporosis activity against ovariectomized ICR mouse assessed as femur ash weight at 110.3 nmol/kg, po after 30 mins; type: functional
Mus musculus [3] = assay: Toxicity in ovariectomized ICR mouse assessed as tail bleeding time at 110.3 nmol/kg, po for 90 mins; type: organism-based; details: in vivo, 1.5 h
Mus musculus [4] = assay: Toxicity in ovariectomized ICR mouse assessed as effect on spleen weight at 110.3 nmol/kg, po after 4 weeks; type: organism-based; details: in vivo, 672 h
Mus musculus [5] = assay: Antiosteoporosis activity against ovariectomized ICR mouse assessed as serum ALP activity at 110.3 nmol/kg, po after 30 mins; type: functional
Mus musculus [6] = assay: Antiosteoporosis activity against ovariectomized ICR mouse assessed as serum calcium level at 110.3 nmol/kg, po after 30 mins; type: functional
Mus musculus [7] = assay: Antiosteoporosis activity against ovariectomized ICR mouse assessed as femur calcium content at 110.3 nmol/kg, po after 30 mins; type: functional
Mus musculus [8] = assay: Toxicity in ovariectomized ICR mouse assessed as effect on kidney weight at 110.3 nmol/kg, po after 4 weeks; type: organism-based; details: in vivo, 672 h
Mus musculus [9] = assay: Antiosteoporosis activity against ovariectomized ICR mouse assessed as serum phosphorous level at 110.3 nmol/kg, po after 30 mins; type: functional
Mus musculus [10] = assay: Toxicity in ovariectomized ICR mouse assessed as effect on body weight at 110.3 nmol/kg, po after 4 weeks; type: organism-based; details: in vivo, 672 h
Mus musculus [11] = assay: Toxicity in ovariectomized ICR mouse assessed as effect on liver weight at 110.3 nmol/kg, po after 4 weeks; type: organism-based; details: in vivo, 672 h
Mus musculus [12] = assay: Toxicity in ovariectomized ICR mouse assessed as change in uterine weight at 110.3 nmol/kg, po after 4 weeks; type: organism-based; details: in vivo, 672 h
Mus musculus [13] = assay: Antiosteoporosis activity against ovariectomized ICR mouse assessed as dry femur weight at 110.3 nmol/kg, po after 30 mins; type: functional
Mus musculus [14] = assay: Antiosteoporosis activity against ovariectomized ICR mouse assessed as mineral content at 110.3 nmol/kg, po after 30 mins; type: functional
Mus musculus [15] = assay: Toxicity in ovariectomized ICR mouse assessed as effect on lung weight at 110.3 nmol/kg, po after 4 weeks; type: organism-based; details: in vivo, 672 h
Mus musculus [16] = assay: Antiosteoporosis activity against ovariectomized ICR mouse assessed as femur length at 110.3 nmol/kg, po after 30 mins; type: functional
Mus musculus [17] = assay: Antiosteoporosis activity against ovariectomized ICR mouse assessed as femur phosphorous content at 110.3 nmol/kg, po after 30 mins; type: functional

SMILES	Activity (Mus musculus [1])	Activity (Mus musculus [2])	Activity (Mus musculus [3])	Activity (Mus musculus [4])	Activity (Mus musculus [5])	Activity (Mus musculus [6])	Activity (Mus musculus [7])	Activity (Mus musculus [8])	Activity (Mus musculus [9])	Activity (Mus musculus [10])	Activity (Mus musculus [11])	Activity (Mus musculus [12])	Activity (Mus musculus [13])	Activity (Mus musculus [14])	Activity (Mus musculus [15])	Activity (Mus musculus [16])	Activity (Mus musculus [17])
C[C@]12CC[C@@H]3c4ccc(OCC(=O)N[C@@H](CCCNC(=N)N)C(=O)NCC(=O)N[C@@H](CC(=O)O)C(=O)N[C@@H](Cc5ccccc5)C(=O)O)cc4CC[C@H]3[C@@H]1CC[C@@H]2OC(=O)CCC(=O)N[C@@H](CCCNC(=N)N)C(=O)NCC(=O)N[C@@H](CC(=O)O)C(=O)N[C@@H](Cc1ccccc1)C(=O)O (I: RGDF-OH / II: RGDF-OH; linker I:N-II:N via Estradiol(3-OCH2CO,17-OSuc))	522 s	35.22 mg	524 s	Non-toxic	15.8 U/L	3.19 mM	61.17%	Non-toxic	3.09 mM	Non-toxic	Non-toxic	0.05 g	55.46 mg	0.61%	Non-toxic	1.62 cm	21.21%
C[C@]12CC[C@@H]3c4ccc(OCC(=O)N[C@@H](CCCNC(=N)N)C(=O)NCC(=O)N[C@@H](CC(=O)O)C(=O)N[C@@H](CO)C(=O)O)cc4CC[C@H]3[C@@H]1CC[C@@H]2OC(=O)CCC(=O)N[C@@H](CCCNC(=N)N)C(=O)NCC(=O)N[C@@H](CC(=O)O)C(=O)N[C@@H](CO)C(=O)O (I: RGDS-OH / II: RGDS-OH; linker I:N-II:N via Estradiol(3-OCH2CO,17-OSuc))	580 s	35.6 mg	570 s	Non-toxic	19.61 U/L	3.22 mM	61.05%	Non-toxic	2.99 mM	Non-toxic	Non-toxic	0.05 g	55.22 mg	0.62%	Non-toxic	1.64 cm	20.35%
CC(C)[C@H](NC(=O)[C@H](CC(=O)O)NC(=O)CNC(=O)[C@H](CCCNC(=N)N)NC(=O)CCC(=O)O[C@H]1CC[C@H]2[C@@H]3CCc4cc(OCC(=O)N[C@@H](CCCNC(=N)N)C(=O)NCC(=O)N[C@@H](CC(=O)O)C(=O)N[C@H](C(=O)O)C(C)C)ccc4[C@H]3CC[C@]12C)C(=O)O (I: RGDV-OH / II: RGDV-OH; linker I:N-II:N via Estradiol(3-OCH2CO,17-OSuc))	591 s	35.75 mg	532 s	Non-toxic	19.94 U/L	3.17 mM	61.56%	Non-toxic	2.84 mM	Non-toxic	Non-toxic	0.059 g	56.46 mg	0.62%	Non-toxic	1.66 cm	20.94%
C[C@]12CC[C@@H]3c4ccc(OCC(=O)N[C@@H](CCCNC(=N)N)C(=O)NCC(=O)N[C@@H](CC(=O)O)C(=O)N[C@@H](Cc5ccccc5)C(=O)O)cc4CC[C@H]3[C@@H]1CCC2=O (X1-RGDF-OH)	581 s	33.85 mg	576 s	–	16.42 U/L	3.44 mM	56.96%	–	3.17 mM	–	–	0.06 g	53.99 mg	0.59%	–	1.65 cm	20.32%
C[C@]12CC[C@@H]3c4ccc(OCC(=O)N[C@@H](CCCNC(=N)N)C(=O)NCC(=O)N[C@@H](CC(=O)O)C(=O)N[C@@H](CO)C(=O)O)cc4CC[C@H]3[C@@H]1CCC2=O (X1-RGDS-OH)	579 s	34.38 mg	568 s	–	16.62 U/L	3.33 mM	57.76%	–	2.98 mM	–	–	0.069 g	54.29 mg	0.6%	–	1.65 cm	20.44%
CC(C)[C@H](NC(=O)[C@H](CC(=O)O)NC(=O)CNC(=O)[C@H](CCCNC(=N)N)NC(=O)COc1ccc2c(c1)CC[C@@H]1[C@@H]2CC[C@]2(C)C(=O)CC[C@@H]12)C(=O)O (X1-RGDV-OH)	563 s	33.99 mg	571 s	–	17.42 U/L	3.33 mM	57.24%	–	2.96 mM	–	–	0.066 g	54.12 mg	0.61%	–	1.66 cm	20.08%
C[C@]12CC[C@@H]3c4ccc(OCC(=O)N[C@@H](CCCNC(=N)N)C(=O)NCC(=O)N[C@@H](CC(=O)O)C(=O)N[C@@H](Cc5ccccc5)C(=O)O)cc4CC[C@H]3[C@@H]1CC[C@@H]2O ({Acetyl(estradiol-3-yloxy)}-RGDF-OH)	557 s	33.99 mg	560 s	–	25.42 U/L	3.34 mM	–	–	–	–	–	0.067 g	–	0.6%	–	1.67 cm	–
C[C@]12CC[C@@H]3c4ccc(OCC(=O)N[C@@H](CCCNC(=N)N)C(=O)NCC(=O)N[C@@H](CC(=O)O)C(=O)N[C@@H](CO)C(=O)O)cc4CC[C@H]3[C@@H]1CC[C@@H]2O ({Acetyl(estradiol-3-yloxy)}-RGDS-OH)	582 s	–	577 s	–	26.62 U/L	3.33 mM	–	–	–	–	–	0.064 g	–	0.6%	–	1.65 cm	–
CC(C)[C@H](NC(=O)[C@H](CC(=O)O)NC(=O)CNC(=O)[C@H](CCCNC(=N)N)NC(=O)COc1ccc2c(c1)CC[C@@H]1[C@@H]2CC[C@]2(C)[C@@H](O)CC[C@@H]12)C(=O)O ({Acetyl(estradiol-3-yloxy)}-RGDV-OH)	569 s	34.29 mg	577 s	–	26.01 U/L	3.32 mM	–	–	–	–	–	0.064 g	–	0.61%	–	–	–
C[C@]12CC[C@@H]3c4ccc(O)cc4CC[C@H]3[C@@H]1CC[C@@H]2OC(=O)CCC(=O)N[C@@H](CCCNC(=N)N)C(=O)NCC(=O)N[C@@H](CC(=O)O)C(=O)N[C@@H](Cc1ccccc1)C(=O)O ({Succinyl(O17-estradiol)}-RGDF-OH)	576 s	34.87 mg	568 s	–	23.18 U/L	3.34 mM	58.06%	–	–	–	–	0.06 g	–	0.61%	–	–	–
C[C@]12CC[C@@H]3c4ccc(O)cc4CC[C@H]3[C@@H]1CC[C@@H]2OC(=O)CCC(=O)N[C@@H](CCCNC(=N)N)C(=O)NCC(=O)N[C@@H](CC(=O)O)C(=O)N[C@@H](CO)C(=O)O ({Succinyl(O17-estradiol)}-RGDS-OH)	575 s	–	561 s	–	23.93 U/L	3.35 mM	59.14%	–	–	–	–	0.063 g	53.98 mg	0.6%	–	1.66 cm	–
CC(C)[C@H](NC(=O)[C@H](CC(=O)O)NC(=O)CNC(=O)[C@H](CCCNC(=N)N)NC(=O)CCC(=O)O[C@H]1CC[C@H]2[C@@H]3CCc4cc(O)ccc4[C@H]3CC[C@]12C)C(=O)O ({Succinyl(O17-estradiol)}-RGDV-OH)	551 s	34.7 mg	560 s	–	22.96 U/L	3.36 mM	–	–	–	–	–	0.064 g	–	0.61%	–	1.67 cm	–
C[C@]12CC[C@@H]3c4ccc(O)cc4CC[C@H]3[C@@H]1CC[C@@H]2O [ESTRADIOL]	417 s	–	441 s	–	27.22 U/L	3.34 mM	–	–	–	–	–	0.108 g	–	0.61%	–	1.64 cm	–
C[C@]12CC[C@@H]3c4ccc(O)cc4CC[C@H]3[C@@H]1CCC2=O [ESTRONE]	411 s	32.08 mg	433 s	–	27.97 U/L	3.35 mM	56.2%	–	3.13 mM	–	–	0.114 g	53.03 mg	0.61%	–	1.65 cm	19.11%
